For experiment [1], the system named is C57BL/6 mouse irradiated with 7.5 Gy gamma radiation. The experiment can be described thus: Hair regrowth in an irradiated mouse (Example 1). The format is in vivo. Conditions: 12 days of treatment, FIG. 1A, untreated control showed no new growth hair. The source says: FIG. 1A. A C57BL/6 mouse irradiated with 7.5 Gy gamma radiation on Sep. 24, 2003 and given 12 days of [Sar, Met(02)^11]-substance P (Homspera™) treatment.
FIG. 1B. A C57BL/6 mouse irradiated with 7.5 Gy gamma radiation on Sep. 24, 2003 and given no Homspera™ treatment.
A C57BL/6 mouse was irradiated with 7.5 Gy gamma radiation on Sep. 24, 2003 and given 12 days of [Sar, Met(02)^11]-substance P (Homspera™) treatment. […] As a control, a C57BL/was 6 mouse irradiated with 7.5 Gy gamma radiation on Sep. 24, 2003 and given no Homspera™ treatment. No new growth hair was observed.

In experiment [2] the test system is C57BL/6 mice given Cobalt 60 gamma radiation. In words: Restoration of radiation-induced hair loss in mice, aerosol treatment (Example 2). The format is in vivo, mouse. Conditions: mice pre-exposed to 5 Gy or 2.5 Gy, then 10 Gy at day 75; hair loss over approximately 20% of body; one micromolar by aerosol 15 min/day, 9 days of treatment. The procedure:
C57BL/6 mice were given a Cobalt 60 gamma radiation treatment on Sep. 24, 2002 of either 10 Gy, 7.5 Gy, 5 Gy, or 2.5 Gy. The 10 Gy mice died at an average of 11.3 days after the radiation exposure. All of the other mice in the other radiation exposure groups survived at least until Dec. 18, 2002. At 75 days after the initial radiation exposure, the 5 Gy and 2.5 Gy mice were administered a 10 Gy dose of Cobalt 60 gamma radiation. On the day of the second 10 Gy radiation exposure, it was noted that the 5 Gy and 2.5 Gy mice had hair loss over approximately 20% of their body with the most significant hair loss in their leg areas and around their ears. Half of the 5 Gy and 2.5 Gy (N=10) mice were administered a one micromolar Homspera™ dose by aerosol for 15 min/day beginning the day of the 10 Gy radiation exposure.

Experiment [3] has as its system C57BL/6 mice, lethal dose of gamma radiation (7.75 Gy). The experiment can be described thus: Hair retention and immune status after a lethal dose of gamma radiation (Example 3). In kind it is in vivo, mouse. As to conditions: for hair retention: photographed at Day +56 and Day +90 after radiation. The source says:
FIG. 2A. Group 1 (90 day treatment of Homspera™) mice photographed at day 56 after radiation.
FIG. 2B. Group 2 (35 day treatment of Homspera™) mice photographed at day 56 after radiation.
FIG. 2C. Group 1 (90 day treatment of Homspera™) mice photographed at day 90 after radiation.
FIG. 2D. Group 2 (35 day treatment of Homspera™) mice photographed at day 90 after radiation.
C57BL/6 mice were divided into three groups. Groups 1 and 2 underwent a lethal dose of gammna radiation (7.75 Gy) on July 11th. Group 1 mice were treated with Homspera™ (50 micromolar for 35 days and then a maintenance dose of 10 micromolar until +90 days), and then they were killed at +90 days post-lethal radiation (October 9th). Their immune system status was normal compared to control mice (Group 3) that had not been treated with radiation and had not been treated with Homspera™. Group 2 mice received Homspera™ treatment for 35 days after radiation, and then the Homspera™ treatment was completely stopped.
There are two sets of pictures of the Group 1 and Group 2 mice: one set of pictures taken on September 5th at Day +56 after radiation (FIGS. 2A and 2B), and the other on October 9th at Day +90 after radiation (FIGS. 2C and 2D).

On to “[Sar, Met(02)^11]-substance P [Homspera™]”, for which the new hair growth result in experiment [1] is reported as “New growth (black) hair was observed”. In addition, the “restoration of hair loss” value in experiment [2] was “restored their hair loss”. Moreover, the hair retention entry is recorded as “retained their hair” in experiment [3] (Group 1: 7.75 Gy, 90 day treatment) and “retained their hair” in experiment [3] (Group 2: 7.75 Gy, 35 day treatment then stopped). Besides, the immune system status result in experiment [3] (Group 1: 7.75 Gy, 50 micromolar for 35 days, then 10 micromolar until +90 days, at +90 days, compared to untreated non-irradiated control mice (Group 3)) is given as “normal”.

For the origin of these results see US20060153789A1, “Stimulation of hair regrowth” (priority 2002, published 2006).
